In patent US20140148419A1, “Treatment of Excessive Menstrual Bleeding Associated with Uterine Fibroids” (PREGLEM SA, priority 2011, published 2014):

Tested on: premenopausal women with heavy uterine bleeding due to uterine fibroids
Test: Double-blind, randomized, placebo-controlled clinical study; menstrual bleeding assessed by pictorial blood loss assessment chart (PBAC), with or without later uterine artery embolization (UAE)
Format: in vivo, human
Conditions: for % Patient with PBAC < 75 at baseline / PBAC at baseline: before treatment; for PBAC at baseline / PBAC 3 months after treatment stop / PBAC 6 months after treatment stop / PBAC at week 13 of treatment: Mean +/- SD
Experimental: A double-blind, randomized, placebo-controlled study was conducted to evaluate the long term effect of ulipristal acetate in the treatment of uterine fibroids. Patients included premenopausal women 18-50 years with heavy uterine bleeding due to uterine fibroids who were eligible for surgery. These patients met the criteria of a Pictorial Bleeding Assessment Chart (PBAC) score >100 during days 1-8 of menstruation.
The patients were randomized in a 2:2:1 manner to receive for 12 weeks, either ulipristal acetate (UPA) 5 mg or ulipristal acetate 10 mg or placebo. In addition, all patients received concomitant iron therapy (1 tablet of 80 mg or iron once daily, Tardyfero®). The reference to 2:2:1 means that for every 5 patients, two would be randomized to receive UA 5 mg, two to receive UA 10 mg and one to receive placebo.
Forty-eight patients received a daily placebo treatment, 95 patients received a daily dose of 5 mg ulipristal acetate (Esmya®), and 98 patients received a daily dose of 10 mg ulipristal acetate (Esmya®). […] Thirty-three subjects underwent a Uterine Artery Embolization at or after week 13: 4 patients in the placebo group (group 4), 11 patients in the 5 mg ulipristal (Esmya®) group (group 5) and 18 patients in the 10 mg ulipristal (Esmya®)) group (group 6).
For study enrollment as well as follow-up assessment, menstrual bleeding was assessed using the pictorial blood loss assessment chart (PBAC) developed by Higham and colleagues (Higham J M, O'Brien P M, Shaw R W. Assessment of menstrual blood loss using a pictorial chart. Br J Obstet Gynaecol 1990; 97:734-9). The PBAC is one of the current standard methods used to objectively estimate menstrual blood loss and diagnose menorrhagia. Abnormal bleeding is defined as PBAC score >100 over 8 days of menstruation. Normal menstrual bleeding PBAC is <75. Amenorrhea is PBAC=0.
The PBAC score was assessed before treatment (Baseline), at week 13 after the end of treatment with ulipristal, at 3 months and 6 months after […].
The PBAC and the % of patients with a PBAC <75 was reported before treatment (Baseline), at week 13 after the end of treatment with ulipristal, at 3 months and 6 months after the treatment stop.

[1] = 5 mg daily, no UAE or any other surgery (Group 2)
[2] = 5 mg daily, no UAE or any other surgery (Group 2), listed as ulipristal
[3] = 5 mg daily, with UAE (Group 5), listed as ulipristal
[4] = 10 mg daily, no UAE or any other surgery (Group 3)
[5] = 10 mg daily, no UAE or any other surgery (Group 3), listed as ulipristal
[6] = 10 mg daily, with UAE (Group 6)
[7] = 10 mg daily, with UAE (Group 6), listed as ulipristal
[8] = 5 mg daily, with UAE performed after treatment stop (Group 5)
[9] = 10 mg daily, with UAE performed after treatment stop (Group 6)

CC(=O)O[C@]1(C(C)=O)CC[C@H]2[C@@H]3CCC4=CC(=O)CCC4=C3[C@@H](c3ccc(N(C)C)cc3)C[C@@]21C [Esmya, 17α-acetoxy-11β-[4-N,N-dimethylaminophenyl)-19-norpregna-4,9-diene-3,20-dione]
% Patient with PBAC < 75, 3 months after end of treatment [1]: 15%
% Patient with PBAC < 75, 6 months after end of treatment [1]: 17%
% Patient with PBAC < 75 at week 13 of treatment [1]: 98%
% Patient with PBAC < 75 at baseline [1]: 0%
% Patient with PBAC < 75, 3 months after end of treatment [2]: 15%
% Patient with PBAC < 75 at week 13 of treatment [2]: 98%
% Patient with PBAC < 75, 3 months after end of treatment (5 mg daily, with UAE (Group 5)): 36%
% Patient with PBAC < 75, 6 months after end of treatment (5 mg daily, with UAE (Group 5)): 27%
% Patient with PBAC < 75 at week 13 of treatment (5 mg daily, with UAE (Group 5)): 100%
% Patient with PBAC < 75 at baseline (5 mg daily, with UAE (Group 5)): 0%
% Patient with PBAC < 75, 3 months after end of treatment [3]: 36%
% Patient with PBAC < 75, 6 months after end of treatment [3]: 27%
% Patient with PBAC < 75 at week 13 of treatment [3]: 100%
% Patient with PBAC < 75, 3 months after end of treatment [4]: 17%
% Patient with PBAC < 75, 6 months after end of treatment [4]: 26%
% Patient with PBAC < 75 at week 13 of treatment [4]: 97%
% Patient with PBAC < 75 at baseline [4]: 0%
% Patient with PBAC < 75, 3 months after end of treatment [5]: 17%
% Patient with PBAC < 75 at week 13 of treatment [5]: 97%
% Patient with PBAC < 75, 3 months after end of treatment [6]: 60%
% Patient with PBAC < 75, 6 months after end of treatment [6]: 53%
% Patient with PBAC < 75 at week 13 of treatment [6]: 100%
% Patient with PBAC < 75 at baseline [6]: 0%
% Patient with PBAC < 75, 3 months after end of treatment [7]: 60%
% Patient with PBAC < 75, 6 months after end of treatment [7]: 53%
% Patient with PBAC < 75 at week 13 of treatment [7]: 100%
PBAC at baseline (5 mg daily oral 12 weeks, no UAE or any other surgery (Group 2)): 419 +/− 281
PBAC at baseline (5 mg daily oral 12 weeks, with UAE performed after treatment stop (Group 5)): 490 +/− 231
PBAC 3 months after treatment stop [1]: 337 +/− 300
PBAC 6 months after treatment stop [1]: 338 +/− 233
PBAC at week 13 of treatment [1]: 13 +/− 69
PBAC 3 months after treatment stop [8]: 202 +/− 102
PBAC 6 months after treatment stop [8]: 207 +/− 117
PBAC at week 13 of treatment [8]: 25 +/− 60
PBAC at baseline (10 mg daily oral 12 weeks, no UAE or any other surgery (Group 3)): 340 +/− 187
PBAC at baseline (10 mg daily oral 12 weeks, with UAE performed after treatment stop (Group 6)): 375 +/− 135
PBAC 3 months after treatment stop [4]: 417 +/− 669
PBAC 6 months after treatment stop [4]: 203 +/− 161
PBAC at week 13 of treatment [4]: 2 +/− 13
PBAC 3 months after treatment stop [9]: 120 +/− 55
PBAC 6 months after treatment stop [9]: 136 +/− 70
PBAC at week 13 of treatment [9]: 0 +/− 0
effect for controlling menstrual bleeding resulting from oral administration prior to UAE (oral ulipristal prior to UAE versus ulipristal alone and UAE alone): synergistic effect
